This note sets out measurements from patent US10287292B2, “CXCR7 antagonists” (CHEMOCENTRYX, INC., priority 2012, dated 2019).

Bounds are passed on as bounds.

The experiment deals with CXCR7 receptor (Homo sapiens (Human), UniProt P25106). Description: Serum Binding Analysis: displacement of 125I-labeled SDF-1 from CXCR7 in 100% human serum. The conditions noted are these: 125I SDF-1 displacement in 100% human serum, MCF-7 and/or MDA-MB-435S CXCR7 transfected cells, 3 hrs at 4° C.; read-out: Avg Ser IC50. As to the method:
The compounds were combined with cells expressing the CXCR7 receptor (e.g., MCF cells or cells transfected to express CXCR7) in the presence of the 125 I-labeled SDF-1 chemokine as detailed in Determination of IC50 values. Reagents and Cells (see below). The ability of the compounds to displace the labeled chemokine from the CXCR7 receptor sites at multiple concentrations was then determined with the screening process.
In Table 1, Avg Bind IC50 refers to the Buffer Binding Analysis described below, while Avg Ser IC50 refers to the Serum Binding Analysis described below. All compounds were prepared as described in the Examples above, or by related methods substituting readily available starting materials.
^125I-labeled SDF-1 was purchased from Perkin-Elmer Life Sciences, Inc. (Boston, Mass.). The MCF-7 (adenocarcinoma; mammary gland) cell line was obtained from the American Type Culture Collection (ATCC, Manassas, Va.) or and was cultured in DMEM (Mediatech, Herndon, Va.) supplemented with 10% fetal bovine serum (FBS) (HyClone Logan, Utah) and bovine insulin (0.01 mg/mL) (Sigma. St. Louis, Mo.) at 37° C. in a humidified incubator at a 5% CO2/air mixture. CXCR7 transfected MDA-MB-435S were produced as described below. MDA-MB-435S human breast cancer line, was purchased from ATCC, and cultured in DMEM/10% FBS medium. The complete coding sequence of the gene encoding CXCR7 (a.k.a. CCXCKR2, hRDC1), was isolated from MCF-7 cells using μMACs mRNA isolation kit (Miltenyi Biotec, Auburn, Calif.). DNA contamination was removed by DNase digestion via RNeasy columns (Qiagen, Inc., Valencia, Calif.) and cDNA was generated using GeneAmp RNA PCR Core Kit (Applied Biosystems, Foster City. Calif.). PCR of cDNA samples was performed using Taq PCR Master Mix kit (Qiagen. Inc.) and hRDC1 primers harboring 5′ and 3′ Not I sites (hRDC1F 5′ […]-3, hRDC1R 5′-[…]-3′) Not I digested PCR product was ligated into Not I digested pcDNA3.1(+)(Invitrogen, Carlsbad, Calif.) and screened for orientation and sequence confirmed. Plasmid DNA was then isolated from overnight bacterial cultures by Maxiprep (Qiagen, Inc.). Plasmid DNA (10 μg) was added to MDA-MB-435s cells and cells were electroporated (0.22 kV, 960 uF) via Gene Pulser (Biorad laboratories, Hercules, Calif.). 48 hr post-electroporation, cells were transferred to selection medium (600 ug/ml G418).
In order to more properly assess the binding efficacy of the compounds, radioligand binding assays were carried out in the presence of 100% human serum to more accurately reflect the in vivo environment. […] Target compounds were tested to determine their ability to bind with CXCR7 sites on MCF-7 and/or MDA-MB-435S CXCR7 transfected cells. Efficiency-maxim/zed radioligand binding using filtration protocols as described in Dairaghi D J, et al., HHV8-encoded vMIP-I selectively engages chemokine receptor CCR5. Agonist and antagonist profiles of viral chemokines., J. Biol. Chem. 1999 Jul. 30; 274(31): 21569-74 and Gosling J, et al., Cutting edge: identification of a novel chemokine receptor that binds dendritic cell- and T cell-active chemokines including ELC, SLC, and TECK, J. Immunol. 2000 Mar. 15; 164(6):2851-6 was used.
In these assays, MCF-7 and/or MDA-MB-435S cells were interrogated with the target compounds and the ability of these compounds to displace 125 I radiolabeled SDF-1 was assessed using the protocol described in Dairaghi and Gosling. The target compounds were added to the plate to the indicated concentration followed by addition of cells and radiolabeled chemokine (125I SDF-1), both in the following medium (human AB serum with 10 mM HEPES added to stabilize at pH 7.4). All assays were then incubated for 3 hrs at 4° C. with gentle agitation.
A general note: Loss of bound radioactivity is the signal in a displacement assay; it reports binding, not function.

CXCR7 receptor, sequence (P25106 whole entry): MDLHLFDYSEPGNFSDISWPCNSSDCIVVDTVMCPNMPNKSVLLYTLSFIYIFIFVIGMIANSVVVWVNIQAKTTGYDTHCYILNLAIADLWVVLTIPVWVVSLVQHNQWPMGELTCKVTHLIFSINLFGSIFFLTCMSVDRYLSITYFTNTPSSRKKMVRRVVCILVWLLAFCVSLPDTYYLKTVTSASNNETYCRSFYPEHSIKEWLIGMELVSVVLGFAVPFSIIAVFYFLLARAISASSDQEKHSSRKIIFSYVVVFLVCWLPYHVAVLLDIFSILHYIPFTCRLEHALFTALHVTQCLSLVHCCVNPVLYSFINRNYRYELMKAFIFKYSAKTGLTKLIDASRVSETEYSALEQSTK

Turning to `Cc1nc(C(=O)N[C@H]2CCN(c3nccn4ccnc34)C2)nn1-c1ccc(F)cc1` [Compound 1.001], the IC50 was no more than 500 nM.

For `N#Cc1ccc(-n2cnc(C(=O)N[C@H]3CCN(c4nccn5ccnc45)C3)n2)cc1` [Compound 1.002], the IC50 fell in the range of 2500 to 15000 nM.

As to `O=C(N[C@H]1CCN(c2nccn3cccc23)C1)c1ncn(-c2ccc(F)cc2)n1` [Compound 1.003], the IC50 was no more than 500 nM.

Take `Cc1ccc(-n2cnc(C(=O)N[C@H]3CCN(c4nccn5ccnc45)C3)n2)cc1` [Compound 1.004]: the IC50 lay in the range of 500 to 2500 nM.

For `CS(=O)(=O)c1ccc(-n2cnc(C(=O)N[C@H]3CCN(c4nccn5ccnc45)C3)n2)cc1` [Compound 1.005], the IC50 is 2500 to 15000 nM.

In the case of `O=C(N[C@H]1CCN(c2nccn3ccnc23)C1)c1ncn(-c2ccccc2F)n1` [Compound 1.006], the concentration for half-maximal inhibition (IC50) was no more than 500 nM.

For `CC(C)c1cn2cccc2c(N2CC[C@H](NC(=O)c3ncn(-c4ccc(F)cc4)n3)C2)n1` [Compound 1.007], the IC50 lay in the range of 500 to 2500 nM.

As for `CC(C)c1cn2cccc2c(N2CC[C@H](NC(=O)c3ncn(-c4ccccc4)n3)C2)n1` [Compound 1.008], the IC50 was 500 to 2500 nM.

Regarding `CC(C)c1cn2cccc2c(N2CC[C@H](NC(=O)c3csc(N4CCC(O)CC4)n3)C2)n1` [Compound 1.009], the IC50 was no more than 500 nM.

Consider `O=C(N[C@@H]1CCN(c2nccn3ccnc23)C1)c1ncn(-c2ccc(F)cc2)n1` [Compound 1.010], for which the IC50 fell in the range of 500 to 2500 nM.

`O=C(N[C@H]1CCN(c2nccn3ccnc23)C1)c1ccc(N2CCC(O)CC2)nn1` [Compound 1.011]: the IC50 lay in the range of 2500 to 15000 nM.

For `CCc1cn2cccc2c(N2CC[C@H](NC(=O)c3csc(N4CCC(O)CC4)n3)C2)n1` [Compound 1.012], the IC50 was no more than 500 nM.

On to `CCc1cn2cccc2c(N2CC[C@H](NC(=O)c3ncn(-c4ccc(F)cc4)n3)C2)n1` [Compound 1.013], for which the IC50 was no more than 500 nM.

As for `O=C(N[C@H]1CCN(c2nccn3ccnc23)C1)c1ncn(-c2ccc(F)c(F)c2)n1` [Compound 1.014], the IC50 is no more than 500 nM.

With `CCc1cn2cccc2c(N2CC[C@H](NC(=O)c3ncn(-c4ccccc4)n3)C2)n1` [Compound 1.015], the IC50 was no more than 500 nM.

`O=C(N[C@H]1CCN(c2nccn3ccnc23)C1)c1ncn(-c2cccc(F)c2)n1` [Compound 1.016]: the IC50 is no more than 500 nM.

For the compound `O=C(N[C@H]1CCN(c2nccn3cccc23)C1)c1cn(-c2ccccc2)nn1` [Compound 1.017], the IC50 is no more than 500 nM.

As to `O=C(N[C@H]1CCN(c2nccn3nccc23)C1)c1ncn(-c2ccccc2)n1` [Compound 1.018], the IC50 is 2500 to 15000 nM.

Consider `Cc1ccc2nc(C(=O)N[C@H]3CCN(c4nc(C)cn5cccc45)C3)ncc2c1` [Compound 1.019], for which the IC50 was no more than 500 nM.

For the compound `Cc1cn2cccc2c(N2CC[C@H](NC(=O)c3ncn(-c4ccc(F)cc4)n3)C2)n1` [Compound 1.020], the IC50 is no more than 500 nM.

For the compound `Cc1cn2cccc2c(N2CC[C@H](NC(=O)c3noc(-c4ccccc4)n3)C2)n1` [Compound 1.021], the IC50 was no more than 500 nM.

For `Cc1cn2cccc2c(N2CC[C@H](NC(=O)c3ncn(-c4ccc(Cl)cc4)n3)C2)n1` [Compound 1.022], the IC50 is no more than 500 nM.

Take `Cc1cn2cccc2c(N2CC[C@H](NC(=O)c3csc(-c4ccccc4)n3)C2)n1` [Compound 1.023]: the IC50 was no more than 500 nM.

For the compound `Cc1cn2cccc2c(N2CC[C@H](NC(=O)c3coc(-c4ccccc4)n3)C2)n1` [Compound 1.024], the IC50 is no more than 500 nM.

Turning to `Cc1cn2cccc2c(N2CC[C@H](NC(=O)c3csc(N4CCCC4)n3)C2)n1` [Compound 1.025], the IC50 is no more than 500 nM.

Regarding `O=C(N[C@H]1CCN(c2nccn3ccnc23)C1)c1csc(N2CCC2)n1` [Compound 1.026], the IC50 is no more than 500 nM.

As for `O=C(N[C@H]1CCN(c2nccn3cccc23)C1)c1ncc(C2CCCC2)cn1` [Compound 1.028], the IC50 was no more than 500 nM.

`Cc1cn2cccc2c(N2CC[C@H](NC(=O)c3ccn(-c4ccc(Cl)cc4)n3)C2)n1` [Compound 1.029]: the IC50 was no more than 500 nM.

Consider `Cc1cn2cccc2c(N2CC[C@H](NC(=O)c3cn(-c4ccccc4)cn3)C2)n1` [Compound 1.030], for which the concentration for half-maximal inhibition (IC50) is no more than 500 nM.

On to `Cc1cn2ccnc2c(N2CC[C@H](NC(=O)c3cn(-c4ccccc4)cn3)C2)n1` [Compound 1.031], for which the IC50 was no more than 500 nM.

For `Cc1cn2ccnc2c(N2CC[C@H](NC(=O)c3ncn(-c4ccccc4)n3)C2)n1` [Compound 1.032], the IC50 is no more than 500 nM.

As to `CC(O)c1cnc(C(=O)N[C@H]2CCN(c3nccn4cccc34)C2)nc1` (stereo partly shown) [Compound 1.033], the IC50 lay within 500 to 2500 nM.

`O=C(N[C@H]1CCN(c2nccn3ccnc23)C1)c1csc(N2CCCC2)n1` [Compound 1.034]: the IC50 was no more than 500 nM.

For the compound `O=C(N[C@H]1CCN(c2nccn3cnnc23)C1)c1cn(-c2ccccc2)cn1` [Compound 1.035], the IC50 was no more than 500 nM.

As for `O=C(N[C@H]1CCN(c2nccn3ccnc23)C1)c1cn(-c2ccccc2)cn1` [Compound 1.036], the IC50 is no more than 500 nM.

Consider `Cc1cn2cccc2c(N2CC[C@H](NC(=O)c3csc(N4CCC(O)CC4)n3)C2)n1` [Compound 1.037], for which the IC50 is no more than 500 nM.

Consider `O=C(N[C@H]1CCN(c2nccn3cccc23)C1)c1csc(N2CCCC2)n1` [Compound 1.038], for which the IC50 is no more than 500 nM.

As for `O=C(N[C@H]1CCN(c2nccn3cccc23)C1)c1cn(-c2ccccc2)cn1` [Compound 1.039], the IC50 is no more than 500 nM.

Consider `Cc1cn2cccc2c(N2CC[C@H](NC(=O)c3ncn(-c4ccccc4)n3)C2)n1` [Compound 1.040], for which the IC50 was no more than 500 nM.

As to `Cc1cn2cccc2c(N2CC[C@H](NC(=O)c3ccn(-c4ccc(F)cc4)n3)C2)n1` [Compound 1.041], the IC50 is no more than 500 nM.

Regarding `NC(=O)C1(NC(=O)c2ccn(-c3ccc(F)cc3)n2)CCN(c2nccn3cccc23)C1` (stereo not shown) [Compound 1.042], the IC50 was no more than 500 nM.

For the compound `O=C(NC1(C(=O)O)CCN(c2nccn3cccc23)C1)c1ccn(-c2ccc(F)cc2)n1` (stereo not shown) [Compound 1.043], the IC50 is 2500 to 15000 nM.

For `Cc1ccc2nc(C(=O)N[C@H]3CCN(c4nccn5cnnc45)C3)ncc2c1` [Compound 1.044], the IC50 is no more than 500 nM.

In the case of `Cc1ccccc1-c1nc(C(=O)N[C@H]2CCN(c3nccn4ccnc34)C2)cs1` [Compound 1.045], the IC50 was no more than 500 nM.

As for `Cc1ccccc1-c1nc(C(=O)N[C@H]2CCN(c3nccn4cccc34)C2)cs1` [Compound 1.046], the IC50 was no more than 500 nM.

As to `Cc1ccc2nc(C(=O)N[C@H]3CCN(c4nccn5ccnc45)C3)ncc2c1` [Compound 1.048], the half-maximal inhibitory concentration (IC50) is no more than 500 nM.

In the case of `CN(C)c1cnc(C(=O)N[C@H]2CCN(c3nccn4cccc34)C2)cn1` [Compound 1.049], the IC50 was no more than 500 nM.

For `O=C(NC1(CO)CCN(c2nccn3ccnc23)C1)c1ncn(-c2ccccc2)n1` (stereo not shown) [Compound 1.050], the IC50 was no more than 500 nM.

As to `O=C(NC1(CO)CCN(c2nccn3cccc23)C1)c1ncn(-c2ccccc2)n1` (stereo not shown) [Compound 1.051], the IC50 was no more than 500 nM.

With `O=C(N[C@H]1CCN(c2nccn3cccc23)C1)c1cnc(C2CC2)cn1` [Compound 1.052], the IC50 is no more than 500 nM.

Turning to `O=C(N[C@H]1CCN(c2nccn3cccc23)C1)c1ncc2cc(Cl)ccc2n1` [Compound 1.053], the IC50 was no more than 500 nM.

`Cc1ccccc1-n1ccc(C(=O)N[C@H]2CCN(c3nccn4cnnc34)C2)n1` [Compound 1.054]: the 50% inhibitory concentration (IC50) is no more than 500 nM.

For orientation: IC50 means the point on the concentration scale where inhibition reaches its midpoint.
